Assay results taken from US20080308744A1 (Beth Israel Deaconess Medical Center, priority 2003, published 2008).

Tests used:
[1] = Fluorescence spectrometry: relative fluorescent yield of 800 nm contrast agents; format: physicochemical
Description: The performance of these agents in rat and pig model systems of SLN mapping for the skin, gastrointestinal tract and lung were also quantitated.
All of the samples were diluted with PBS, pH7.8, or with 100% FBS according to absorbance at λmax using 1-cm path length quartz spectrometer cell, and excited at 770 nm. Fluorescence was measured by calculating the area under the curve of the intensity from 785 nm to 950 nm subtracting the fluorescence of control PBS, pH 7.8.

[2] = Quantum yield measurements; format: physicochemical; details: compared to QD
[3] = in DMSO; cited from earlier work
[4] = Behaviour of the free dye in blood (description); details: small molecule form

| SMILES | relative per molecule fluorescent yield to QDs ([1]; in 100% fetal bovine serum) | relative per molecule fluorescent yield to QDs ([1]; in phosphate-buffered saline) | quantum yield ([2]; in FBS) | quantum yield ([2]; in PBS) | in vivo early half-life | quantum yield (control) [3] [%] | solubility in blood [4] |
| --- | --- | --- | --- | --- | --- | --- | --- |
| CC1(C)C(/C=C/C2=C(Oc3ccc(S(=O)(=O)O)cc3)C(=C/C=C3/N(CCCCS(=O)(=O)O)c4ccc(S(=O)(=O)[O-])cc4C3(C)C)/CCC2)=[N+](CCCCCC(=O)O)c2ccc(S(=O)(=O)O)cc21 [800CW] | 1.0 | 0.4 | rather higher | same as that of QD |  |  |  |
| CC1(C)C(/C=C/C=C/C=C/C=C2\N(CCCCS(=O)(=O)O)c3ccc4ccccc4c3C2(C)C)=[N+](CCCCS(=O)(=O)[O-])c2ccc3ccccc3c21 [ICG, indocyanine green] | 0.4 | 0.1 |  |  | shorter half-life | 13 | somewhat less soluble in blood |
